In general, IC50 refers to the point on the concentration scale where inhibition reaches its midpoint. Read a low IC50 as greater potency. The term Ki denotes the dissociation constant of the complex between target and ligand, obtained from inhibition or displacement. Low values mean tighter binding, high ones weaker binding.

For experiment [1], the system named is MDA-MB-231. Briefly: Induction of apoptosis in human MDA-MB-231 cells assessed as late apoptotic cells at 1 uM after 48 hrs using annexin V-propidium iodide staining by flow cytometry. Type of experiment: functional. For orientation: Flow cytometry measures light scatter and fluorescence of single cells or particles in a stream.
Another experiment deals with SK-OV-3. The experiment is described as follows: Growth inhibition of human SKOV3 cells after 4 days by WST8 assay. Type of experiment: functional, cell-based. Conditions: SK-OV-3, 96 h.
Experiment [2] concerns MDA-MB-231. The experiment is described as follows: Induction of apoptosis in human MDA-MB-231 cells assessed as late apoptotic cells at 100 nM after 48 hrs using annexin V-propidium iodide staining by flow cytometry. Type of experiment: functional.
The test system of experiment [3] is MDA-MB-231. Briefly: cells. Conditions: Homo sapiens, MDA-MB-231, 96 h.
Description: Growth inhibition of human MDA-MB-231 cells after 4 days by WST-8 assay
In experiment [4] the test system is MDA-MB-231. The experiment is described as follows: Induction of apoptosis in human MDA-MB-231 cells assessed as late apoptotic cells at 30 nM after 48 hrs using annexin V-propidium iodide staining by flow cytometry. It is filed as functional.
The test system of experiment [5] is MDA-MB-231. Briefly: Induction of apoptosis in human MDA-MB-231 cells assessed as early apoptotic cells at 1 uM after 48 hrs using annexin V-propidium iodide staining by flow cytometry. Type of experiment: functional.
The subject of experiment [6] is MDA-MB-231. Briefly: Induction of apoptosis in human MDA-MB-231 cells assessed as early apoptotic cells at 100 nM after 48 hrs using annexin V-propidium iodide staining by flow cytometry. Type of experiment: functional.
Experiment [7] concerns MDA-MB-231. The experiment is described as follows: Induction of apoptosis in human MDA-MB-231 cells assessed as early apoptotic cells at 30 nM after 48 hrs using annexin V-propidium iodide staining by flow cytometry. Type of experiment: functional.
Experiment [8] has as its target E3 ubiquitin-protein ligase XIAP (Homo sapiens, UniProt P98170).
Description: Binding affinity to N-terminal 6xHis-tagged human cloned XIAP BIR3 domain expressed in Escherichia coli BL21 (DE3) by fluorescence polarization-based competitive binding assay

Sequence of E3 ubiquitin-protein ligase XIAP (P98170 whole entry): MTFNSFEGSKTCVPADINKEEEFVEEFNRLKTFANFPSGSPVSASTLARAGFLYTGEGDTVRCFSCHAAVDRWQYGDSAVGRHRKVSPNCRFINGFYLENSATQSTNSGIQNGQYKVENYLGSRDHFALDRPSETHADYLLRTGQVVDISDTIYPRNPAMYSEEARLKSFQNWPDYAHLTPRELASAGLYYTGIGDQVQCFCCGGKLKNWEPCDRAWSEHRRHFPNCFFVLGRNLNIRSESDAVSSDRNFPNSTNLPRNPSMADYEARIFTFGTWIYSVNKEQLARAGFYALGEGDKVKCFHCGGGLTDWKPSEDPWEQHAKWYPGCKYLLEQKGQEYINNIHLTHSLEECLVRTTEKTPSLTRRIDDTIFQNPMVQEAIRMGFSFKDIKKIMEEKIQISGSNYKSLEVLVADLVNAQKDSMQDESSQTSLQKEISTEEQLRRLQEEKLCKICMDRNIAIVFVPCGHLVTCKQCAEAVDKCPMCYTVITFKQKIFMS

As for `CC[C@H](NC)C(=O)N[C@H]1CCCC[C@H]2CC[C@@H](C(=O)NC(c3ccccc3)c3ccccc3)N2C1=O`, the Activity is on record as 8% in the experiment on MDA-MB-231 [1]; 3% in the experiment on MDA-MB-231 [2]; 3% in the experiment on MDA-MB-231 [4]; 29% with MDA-MB-231 [5]; 20% with MDA-MB-231 [6]; 13% in the experiment on MDA-MB-231 [7]. For the same molecule, the IC50 in the experiment on SK-OV-3 is 1 µM; with MDA-MB-231 [3], 0.41 µM.

Consider `C[C@H](N)C(=O)N[C@H]1CCC[C@H]2CC[C@@H](C(=O)NC(c3ccccc3)c3ccccc3)N2C1=O`, for which, in [8], the affinity corresponds to a Ki of 0.06 µM. This lies in the double-digit nanomolar range.

The molecule `CC[C@H](O)C(=O)N[C@H]1CCC[C@H]2CC[C@@H](C(=O)NC(c3ccccc3)c3ccccc3)N2C1=O` displayed an inhibition constant (Ki) in [8] of 29 µM.

On to `CN[C@@H](C)C(=O)N[C@H]1CCCC[C@H]2CC[C@@H](C(=O)NC(c3ccccc3)c3ccccc3)N2C1=O`, for which the Activity is listed as 8% in the experiment with MDA-MB-231 [1]; 10% with MDA-MB-231 [2]; 2% in the experiment on MDA-MB-231 [4]; 39% in the experiment on MDA-MB-231 [5]; 29% in the experiment on MDA-MB-231 [6]; 13% in the experiment on MDA-MB-231 [7]. For the same molecule, the IC50 with SK-OV-3 is 0.9 µM.

`CCC[C@H](N)C(=O)N[C@H]1CC[C@H]2CC[C@@H](C(=O)NCc3ccccc3)N2C1` showed a Ki in [8] of more than 100 µM.

Molecule `CC[C@H](N)C(=O)N[C@H]1CCCC[C@H]2CC[C@@H](C(=O)N[C@H](c3ccccc3)c3ccc4ccccc4c3)N2C1=O` came in with a Ki in experiment [8] of 0.759 µM.

For the molecule `CC[C@H](N)C(=O)N[C@H]1CCCC[C@H]2CC[C@@H](C(=O)NC(c3ccccc3)c3ccccc3)N2C1=O`, the 50% inhibitory concentration (IC50) in the experiment with SK-OV-3 was more than 10 µM; in the experiment on MDA-MB-231 [3] it was 8 µM. In addition, the inhibitory constant (Ki) in experiment [8] is 0.039 µM.

Molecule `CC[C@H](N)C(=O)N[C@H]1CCCC[C@H]2CC[C@@H](C(=O)N[C@@H](c3ccccc3)c3ccc4ccccc4c3)N2C1=O` had a Ki in [8] of 0.047 µM.

Take `C[C@H](N)C(=O)N[C@H]1CC[C@H]2CC[C@@H](C(=O)NCc3ccccc3)N2C1`: the affinity in [8], expressed as Ki, was […].

Turning to `C[C@H](O)C(=O)N[C@H]1CCCC[C@H]2CC[C@@H](C(=O)NC(c3ccccc3)c3ccccc3)N2C1=O`, the half-inhibitory concentration (IC50) in the experiment on SK-OV-3 was more than 10 µM; in the experiment with MDA-MB-231 [3], 7 µM. This molecule displayed a Ki in experiment [8] of 13 µM.

As to `C[C@H](N)C(=O)N[C@H]1CCCC[C@H]2CC[C@@H](C(=O)NCc3ccccc3)N2C1=O`, in experiment [8], the Ki is 0.1 µM.

Molecule `CC[C@@H](C(=O)N[C@H]1CCCC[C@H]2CC[C@@H](C(=O)NC(c3ccccc3)c3ccccc3)N2C1=O)N1CCOCC1` returned a Ki in [8] of 32.9 µM.

For the origin of these results see ChEMBL document CHEMBL1152291, “Structure-based design, synthesis, evaluation, and crystallographic studies of conformationally constrained Smac mimetics as inhibitors of the X-linked inhibitor of apoptosis protein (XIAP)” (J Med Chem, 2008).
